# According to patent publication US5674490A, “Antibiotic GE1655 complex and its factors A, B, and C” (Gruppa Lepetit S.p.A., priority 1995, dated 1997):
# System: Candida albicans L145
# Test: Candida vaginitis in ovariectomized rats
# Type: in vivo, ovariectomized female CD rats
# Conditions: for Mean log10 cfu ± SD/sample: i.va. twice daily, after 3 days of treatment, GE1655 complex 10, miconazole 4 mg/rat per treat.
# Procedure: The in vivo protective activity of the antibiotic GE1655 complex against Candida albicans in ovariectomized female CD rats (weighing 150-170 g, obtained from Charles River 7 days after surgery) was determined. Candida albicans L145 was grown overnight in Sabouraud dextrose broth (Difco) at 30° C. The culture was centrifuged at 6000 r.p.m. for 20 min at 4° C., the yeast was resuspended in nutrient broth N.2 (Oxoid) containing 15% (v/v) glycerol and stored at -80° C. After 7 days of acclimatization in a temperature and humidity controlled room, the animals received 4 mg of estradiol benzoate (Sigma) subcutaneously. Four days later they were infected by intravaginal (i.va.) instillation with 0.025 ml of thawed Candida albicans suspension (about 5×10^6 cfu/rat).
# GE1655 complex and miconazole (Sigma) were dissolved in dimethylsulfoxide (DMSO) and then diluted 1:10 with PEG 400; this risulted in homogeneous suspensions. Animals received 0.1 ml of one of these suspensions i.va. twice daily for three days starting 24 h after the infection. Control animals were treated with the vehicle (10% DMSO in PEG 400).
# The presence of Candida was determined by inserting a disposable 0.01 ml calibrated loop into the vagina. The sample was resuspended in 0.2 ml of sterile peptonized saline and cultivated on Sabouraud dextrose agar containing 100 mg/l of rifampicin to inhibit growth of bacterial contaminants.
compound,measurement,setting,value
"Clc1ccc(COC(Cn2ccnc2)c2ccc(Cl)cc2Cl)c(Cl)c1 (stereo not drawn) [Miconazole, miconazole]",vaginal load compared with the control group,"2 experiments, 10 mg of GE1655 complex or 4 mg of miconazole",significantly lower (p<0.01)
same,Mean log10 cfu ± SD/sample,exp. 1,1.20 ± 1.01 log10 cfu/sample
same,Mean log10 cfu ± SD/sample,exp. 2,1.24 ± 0.86 log10 cfu/sample
